Results from patent publication US4704403A, “3-(2,2,2-trisubstituted hydrazinium) propionates” (priority 1983, dated 1987).

Experiments:
[1] = tested on: hypertensive male rats of the Akamoto-Aoki line; assay: Variation of arterial pressure upon intraperitoneal administration to hypertensive rats; assay type: in vivo
Experimental: The study of hypotensive properties of the compounds of this invention has been carried out of hypertensive male rats of the Akamoto-Aoki line aged 25-30 weeks. The animals were divided into groups (7-10 rats in each) and for 2 weeks before the beginning of the experiment they were subjected to an every-day training for adaptation to the unit for measurements of the arterial pressure. The systolic and diastolic arterial pressure were measured indirectly on the tail artery. The level of the arterial pressure prior to administration of the test compounds was measured by way of a triple determination thereof--2 days, one day and right before the administration of the preparation. The compounds were administered intraperitoneally in the form of a 2.5% aqueous solution or a 2.5% suspension in Twin-80 in the dose of 50 mg/kg. The measurement of the arterial pressure was effected 30 minutes, 1, 2, 3 and 4 hours and in some cases 24 hours after the administration of the preparation. For a number of compounds featuring a high efficiency, also determined was the dose causing reduction of the arterial pressure by 30% as compared with the starting level (ED30). The statistical processing of the data obtained was carried out using the Student certainty criterion.

[2] = tested on: spontaneously hypertensive rats of the Akamoto-Aoki line; assay: Hypotensive activity on spontaneously hypertensive rats at a single peroral administration; assay type: in vivo; settings: for Systolic arterial pressure: ethyl 40 mg/kg (initial 198), allyl 50 mg/kg (initial 184), benzyl 40 mg/kg (initial 196); for Systolic arterial pressure, percent in parentheses (decrease from initial): ethyl 40, allyl 50, benzyl 40 mg/kg
[3] = tested on: spontaneously hypertensive rats of the Akamoto-Aoki line; assay: Systolic arterial pressure of spontaneously hypertensive rats upon a repeated peroral administration; assay type: in vivo
Experimental: Thus, after a four-days course of administration (once a day, per os) of the compounds according to the present invention an essential reduction of the arterial pressure in the test animals is observed which is not returned to the initial level even an expiration of four days after discontinuation of the preparation administration, whereas the hypotensive effect of nifedipine is manifested for only 8 hours.

[4] = tested on: hemodynamic effects of neoepinephrine; assay: Effect on vegetative responses: neoepinephrine; assay type: in vivo, cats; settings: neoepinephrine 0.2 μg/kg
Experimental: (§1) The effect of the compounds according to the present invention on the arterial pressure and vegetative responses has been studied in acute experiments on cats with a mass of 2.8-4.0 kg narcotized by α-glucochloralose (90 mg/kg) and urethane (100 mg/kg intraperitoneally).
(§2) The arterial pressure in the common carotid artery, breathing and electrocardiogram of the second standard lead were recorded.
(§3) The effect of the compounds according to the present invention on hemodynamic effects of acetylcholine (0.1 μg/kg) neoepinephrine (0.2 μg/kg), noradrenaline (1 μg/kg) and histamine (1.5 μg/kg) was also studied. In some experiments instead of neoepinephrine and noradrenaline adrenaline was used (1 μg/kg). The peripheral part of the vagus nerve was irritated by supromaximum square pulses of the frequency of 30 Hz and duration of 0.1 ms.

Angiotension = assay: Effect on vegetative responses: angiotensin; assay type: in vivo, cats; settings: dose 5 (unit not given)
[5] = Acute toxicity upon intraperitoneal administration to white mice; assay type: in vivo; settings: mouse, in vivo, ip, 14 days observation, average values with confidential limits at P=0.05
Experimental: (§4) The acute toxicity of the compounds according to the present invention was studied on white mice of both sexes with a mass of 20-25 g. A saturated aqueous solution of the compounds or a suspension in Tween-80 was administered to the animals intraperitoneally. The observation over the animals was carried out for 14 days. The results obtained were processed following the Litchfield-Wilkoxon method. As it follows from the data shown in Table 5 hereinbelow, the studied compounds have a very low acute toxicity, thus providing a large spectrum of the therapeutic effect.

white mice = assay: as above; assay type: in vivo; settings: i.p.
Experimental: as §4

[6] = tested on: arrhythmia caused by introduction of calcium chloride; assay: Antiarrhythmic activity on the model of arrhythmia caused by calcium chloride (antagonism towards calcium); assay type: in vivo, mice; settings: for Dose of calcium chloride causing arrhythmia: control 85.0; for Dose of calcium chloride causing heart arrest: control 100.0
Experimental: In experiments on white mice with a mass of 18-25 g narcotized with urethane an electrocardiogram was recorded in the second standard lead. A 2% solution of calcium chloride was introduced into the tail vein at a constant rate (0.01 ml for 2 seconds). The dose of calcium chloride causing arrhythmia and the dose causing heart arrest were determined. In experimental groups the test compounds were administered 20-40 minutes prior to the beginning of the experiment intraperitoneally.

arterial pressure = assay: Effect on the arterial pressure in narcotized cats; assay type: in vivo
Experimental: as §1, §2, §3

[7] = tested on: hemodynamic effects of acetylcholine; assay: Effect on vegetative responses: acetylcholine; assay type: in vivo, cats; settings: dose "-10" [sic] (unit not given); acetylcholine 0.1 μg/kg
Experimental: as §1, §2, §3

[8] = tested on: hemodynamic effects of noradrenaline; assay: Effect on vegetative responses: noradrenaline; assay type: in vivo, cats; settings: noradrenaline 1 μg/kg
Experimental: as §1, §2, §3

[9] = 30 minutes, 50 mg/kg i.p. (nifedipine 1 mg/kg i.p.)
[10] = 1 hour, 50 mg/kg i.p. (nifedipine 1 mg/kg i.p.)
[11] = 2 hours, 50 mg/kg i.p. (nifedipine 1 mg/kg i.p.)
[12] = 4 hours, 50 mg/kg i.p. (nifedipine 1 mg/kg i.p.)
[13] = after four-days p.o. course, benzyl 40 mg/kg, allyl 50 mg/kg, nifedipine dose not given
[14] = p.o. once a day, benzyl 40 mg/kg, allyl 50 mg/kg, nifedipine dose not given
[15] = p.o., benzyl 40 mg/kg, allyl 50 mg/kg, nifedipine dose not given
[16] = dose "-10" [sic] (unit not given)

For C=CC[N+](C)(C)NCCC(=O)[O-] [3-(2,2-dimethyl-2-allylhydrazinium)propionate semihydrate], the “Average variation of the diastolic arterial pressure” value [1, 9] was -10 % of the initial, the “Average variation of the systolic arterial pressure” value [1, 9] was -12 % of the initial and the “Average variation of the diastolic arterial pressure” value [1, 10] was -23 % of the initial. The “Average variation of the systolic arterial pressure” value [1, 10] was -12 % of the initial, the “Average variation of the diastolic arterial pressure” value [1, 11] was -29 % of the initial and the “Average variation of the systolic arterial pressure” value [1, 11] was -18 % of the initial. For the same compound, the “Average variation of the diastolic arterial pressure” value [1, 12] was -31 % of the initial, the “Average variation of the systolic arterial pressure” value [1, 12] was -14 % of the initial and the “Average variation of the diastolic arterial pressure” value ([1]; 24 hours, 50 mg/kg i.p.) was -7 % of the initial. For the same compound, the “Average variation of the systolic arterial pressure” value ([1]; 24 hours, 50 mg/kg i.p.) was -3 % of the initial, the Systolic arterial pressure ([2]; 3 hours after single p.o.) was 153 mm Hg and the “Systolic arterial pressure, percent in parentheses (decrease from initial)” value ([2]; 3 hours after single p.o.) was 17%. The Systolic arterial pressure ([2]; 5 hours after single p.o.) was 155 mm Hg, the “Systolic arterial pressure, percent in parentheses (decrease from initial)” value ([2]; 5 hours after single p.o.) was 16% and the Systolic arterial pressure ([2]; 24 hours after single p.o.) was 170 mm Hg. For the same compound, the “Systolic arterial pressure, percent in parentheses (decrease from initial)” value ([2]; 24 hours after single p.o.) was 8%, the “Systolic arterial pressure, 5th day” value [3, 13] was 126 mm Hg and the “Systolic arterial pressure, 8th day” value [3, 13] was 168 mm Hg. For the same compound, the “Systolic arterial pressure, 10th day” value [3, 13] was 175 mm Hg, the “Systolic arterial pressure, 2nd day after administration” value ([3]; p.o. once a day, allyl 50 mg/kg, nifedipine dose not given) was 132.8 mm Hg and the “Systolic arterial pressure, 1st day after administration” value ([3]; p.o. once a day, benzyl 40 mg/kg (initial 195.8), allyl 50 mg/kg (initial 176.6), nifedipine dose not given (initial 184.0)) was 150.6 mm Hg. The “Systolic arterial pressure, 2nd day before administration” value [3, 14] was 166.8 mm Hg, the “Systolic arterial pressure, 3rd day after administration” value [3, 14] was 118 mm Hg and the “Systolic arterial pressure, 4th day after administration” value [3, 14] was 118.6 mm Hg. For the same compound, the “Systolic arterial pressure, 4th day before administration” value [3, 14] was 129 mm Hg, the “Percent in parentheses (change of systolic pressure from initial), 2nd day after administration” value ([3]; p.o., allyl 50 mg/kg, nifedipine dose not given) was 25% and the “Percent in parentheses (change of systolic pressure from initial), 1st day after administration” value [3, 15] was 15%. For the same compound, the “Percent in parentheses (change of systolic pressure from initial), 2nd day before administration” value [3, 15] was 6%, the “Percent in parentheses (change of systolic pressure from initial), 3rd day after administration” value [3, 15] was 33% and the “Percent in parentheses (change of systolic pressure from initial), 4th day after administration” value [3, 15] was 33%. For the same compound, the “Percent in parentheses (change of systolic pressure from initial), 4th day before administration” value [3, 15] was 27%, the “Percent in parentheses (change of systolic pressure from initial), 5th day” value [3, 15] was 29% and the “Percent in parentheses (change of systolic pressure from initial), 8th day” value [3, 15] was 5%. For the same compound, the “Hemodynamic effect, Neoepinephrine” value ([4]; dose 5 (unit not given)) was -20%, the “Hemodynamic effect, Angiotension” value (Angiotension) was -70% and the LD50 at 336 h [5] was 10600 mg/kg. The “Relative toxicity with respect to quinidine (LD50 / LD50 of quinidine)” value (white mice) was 67.9, the “Dose of calcium chloride causing arrhythmia” value ([6]; compound dose 5 mg/kg i.p.) was 99.6 and the “Dose of calcium chloride causing heart arrest” value ([6]; compound dose 5 mg/kg i.p.) was 118.0. For the same compound, the “Dose of calcium chloride causing arrhythmia” value ([6]; compound dose 25 mg/kg i.p.) was 95.2 and the “Dose of calcium chloride causing heart arrest” value ([6]; compound dose 25 mg/kg i.p.) was 103.0.
In the case of CCCCCCCCCCCCCCCC[N+](C)(C)NCCC(=O)[O-] [3-(2,2-dimethyl-2-hexadecylhydrazinium)propionate], the “Variation of arterial pressure” value (arterial pressure; dose 3 (unit not given)) is reported as -5%, the “Variation of arterial pressure” value (arterial pressure; [16]) is reported as -3% and the “Variation of the effect of acetylcholine” value [7] is reported as -10%. For the same compound, the “Hemodynamic effect, Noradrenaline” value ([8]; dose 3 (unit not given)) was -15%, the “Hemodynamic effect, Noradrenaline” value [8, 16] was -80% and the “Hemodynamic effect, Neoepinephrine” value ([4]; dose 3 (unit not given)) was -10%. For the same compound, the “Hemodynamic effect, Neoepinephrine” value [4, 16] was -30%, the LD50 at 336 h [5] was 1450 mg/kg and the “Relative toxicity with respect to quinidine (LD50 / LD50 of quinidine)” value (white mice) was 9.3. The “Dose of calcium chloride causing arrhythmia” value ([6]; compound dose 5 mg/kg i.p.) was 130.5, the “Dose of calcium chloride causing heart arrest” value ([6]; compound dose 5 mg/kg i.p.) was 140.6 and the “Dose of calcium chloride causing arrhythmia” value ([6]; compound dose 25 mg/kg i.p.) was 102.7. The “Dose of calcium chloride causing heart arrest” value ([6]; compound dose 25 mg/kg i.p.) was 124.5.
